Laboratory results reported in US10364263B2, “Cyclic phosphates and cyclic phosphoramidates for the treatment of neurologic disorders” (Retrophin, Inc., priority 2015, dated 2019).
Where two headings read alike, the source gives them in different places.

Assays:
[1] = Stability in mouse hepatocytes; type: in vitro ADME
Method: (§1) Stability in hepatocytes for select compounds disclosed in the application was evaluated in two species (mouse and human) according to the following procedure. Compounds and positive control samples were dissolved in 100% DMSO at 5 mM. Cryopreserved hepatocytes were thawed and resuspended in Hepatocyte Basal Medium (HBM-Lonza CC-3199) supplemented with CC-4182 (complete hepatocyte culture medium). Test compounds were diluted into cell suspension (1 million cells/ml) from the stock solutions to have a test compound concentration of 5 μM (0.1% DMSO). Incubation was performed in 24-well plates, at 37° C. in a DUBNOFF water bath, under low shaking. Each compound was tested at 6 time points, in duplicates (0, 15, 30, 60, 120 and 240 min). At each time point, an aliquot of 120 μl was taken and transferred to a 96-well deep plate. The reaction was stopped with the addition of one volume of 100% acetonitrile plus 0.1% formic acid and the appropriate internal standard. Then samples were centrifuged at 1100×g for 30 min at +4° C. and supernatants were transferred to a new 96-deepwell plate. Samples were evaporated under N2 and reconstituted in H2O/ACN 0.1% Formic Acid (98:2). Analysis was performed without a calibration curve (Acquity UPLC-Waters; Sciex API4000). Time 0 was obtained adding acetonitrile before addition of the test compound. […] The half-life (t1/2) expressed in hours is derived using Equation 1 as shown in Example 64.

[2] = Stability in human hepatocytes; type: in vitro ADME; settings: for half-life at 5 µM: t1/2, Human Hepatocytes; for half-life: 5 μM, 1 million cells/ml, 37° C., human hepatocytes
Method: as §1

[3] = Permeability in porcine brain endothelial cell blood-brain barrier model; type: in vitro ADME; settings: pig (endothelial cells), co-cultured with rat astrocytes, pH 7.4, PBECs/As blood-brain barrier model, luminal to basal; Diastereoisomer A; read-out: Papp Diastereoisomer A
Excerpt: Compounds disclosed herein show the potential to reach mammalian brain by crossing the blood-brain barrier (BBB) from systemic circulation. […] The porcine brain endothelial cell permeability assay is an in vitro BBB model to be used for the prediction of central nervous system (CNS) drug permeability in vivo and for ranking or prioritization of compounds according to their permeability. This system can also be used for mechanistic studies and drug delivery strategies via receptor-mediated transport (transcytosis). The system is a two-dimensional co-culture, non-contact model of two types of primary cells: primary brain endothelial cells obtained from fresh porcine brains, and primary rat astrocytes, obtained from neonatal rats. This ensures barrier formation and functional expression of key transporters.
The endothelial cells were cultured on rat-tail collagen type I and human fibronectin coated Transwell polycarbonate inserts (surface area 0.7 cm^2; pore size 0.4 μm) and the inserts were placed in 24-well plates containing confluent rat astrocytes. This system allows for the formation of a differentiated BBB model suitable for compound permeability in 10 days.
On the day of the experiment, culture medium was removed and cells were pre-incubated for 30 min with HBSS containing 20 mM Hepes pH 7.4 and 0.1% BSA. Donor volume (apical) was 400 μl and receiver volume (basal) 900 μl. Compounds were diluted in assay medium (at the desired concentration) and added to the luminal side (to mimic blood to brain passage). Transport was measured usually after 60 min by detecting the amount of compound from the basal (brain side). The integrity of the cell layers was assessed by measuring the transendothelial electrical resistance (TEER) and by monitoring FITC-dextran (40 KDa) permeation. Inserts with TEER values […] were selected for permeability studies. As FITC-dextran cannot freely permeate lipophilic barriers, a high degree of FITC-dextran transport indicates poor integrity of the cell layer and wells with high FITC-dextran permeability were excluded. FITC-dextran was included as internal control in each insert used for permeability studies. Fluorescence was measured using a fluorimetric detector. Radioactivity was measured by scintillation counting. For LC-MS/MS analysis, aliquots (200 μl) from the basal compartment were diluted with an equal volume of 100% acetonitrile containing 0.1% formic acid, centrifuged to remove cell debris, and evaporated under N2. After reconstitution, samples were analyzed by LC-MS/MS. Mass balance was determined considering the amount of compound recovered in the donor and receiver chamber at the end of the assay relative to the amount added to the donor chamber at time 0.
Permeability was defined as the apparent permeability coefficient (Papp), which is a measure of the appearance rate of the compound in the receiver chamber, expressed in cm/s. Papp is calculated according the following equation: Papp[cm/sec]=Vd*ΔMr/A*Md*Δt, Equation 2: where
Vd=volume in the donor compartment in cm^3 or mL;
ΔMr=total amount of compound in the receiver compartment after t seconds;
Md=donor amount (added at time 0)
Δt=time measured in seconds
A=filter area in cm^2 (for 24 well plate, A=0.7 cm^2).
To correct for the contribution of filter and substrate, Papp was also determined for the cell-free system. Permeability of the endothelial cell layer was determined using the following equation: […], Equation 3: where
Ptotal=the P of the total system,
Pf=P for the cell-free filter, and
Pe=P for the endothelial cell layer alone. In this equation, the total resistance of the system towards passage of a substance is additively composed of two […] resistances: that of the cell monolayer and that of the filter.

[4] = test system: PANK2 silenced human neuroblastoma IMR32 cells (PANK2−/−); test: Coenzyme A assay in PANK2 silenced cells (LC-MS quantification of free CoA); type: cell-based; settings: compound added twice (24 h + 24 h), relative to 0.1% DMSO controls
In short: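 Free intracellular CoA was measured by positive-mode LC-MS/MS of 20% TFA extracts, taking 2 μl per 10^6 cells as intracellular volume. Cells were IMR32 with stable lentiviral PANK2 knockdown, dosed twice 24 h apart (48 h total, 0.1% DMSO). Output is fold increase over vehicle.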

[5] = Stability in mouse plasma; type: in vitro ADME
In short: (§2)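 Test compound at 3 μM (0.1% DMSO) was incubated in mouse or human plasma at 37 °C and sampled in duplicate at 0, 10, 20, 30, 40 and 60 min. Reactions were stopped with acetonitrile/formic acid containing internal standard. Remaining parent was measured by UPLC-MS/MS without a calibration curve.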

[6] = Stability in human plasma; type: in vitro ADME; settings: 37° C.
In short: as §2

[7] = t1/2, Mouse Hepatocytes, Diastereoisomer A
[8] = human, plasma, Diastereoisomer A (upfield shift in 31P NMR), read-out: t1/2, Human Plasma, Diastereoisomer A (converted)
[9] = human, plasma, Diastereoisomer B, read-out: t1/2, Human Plasma, Diastereoisomer B (converted)
[10] = t1/2, Mouse Hepatocytes, Diastereoisomer B
[11] = Diastereoisomer A (upfield shift in 31P NMR), 3 μM, 37° C., mouse plasma, read-out: t1/2, Mouse Plasma, Diastereoisomer A
[12] = Diastereoisomer A (upfield shift in 31P NMR), read-out: t1/2, Human Plasma, Diastereoisomer A (converted)
[13] = Diastereoisomer A (upfield shift in 31P NMR), 5 μM, 1 million cells/ml, 37° C., mouse hepatocytes, read-out: t1/2, Mouse Hepatocytes, Diastereoisomer A (converted)
[14] = Diastereoisomer A (upfield shift in 31P NMR), read-out: t1/2, Human Hepatocytes, Diastereoisomer A (converted)

Row | half-life at 5 µM [1, 7] [min] | half-life at 5 µM ([2]; Diastereoisomer A) [min] | Papp A→B at 60 min [3] [×10⁻⁶ cm/s] | half-life at 3 µM ([5]; mouse, plasma) [min] | t1/2, Mouse Plasma, Diastereoisomer B ([5]; mouse, plasma, 3 µM) [min] | half-life at 3 µM [6, 8] [min] | half-life at 3 µM [6, 9] [min] | half-life at 5 µM [1, 10] [min] | half-life at 5 µM ([2]; Diastereoisomer B) [min] | Compound | PANK2−/− CoA (Fold Increase): fold increase in Coenzyme A (CoA) levels relative to controls [4] [Fold Increase] | other results
1 | < 15 | < 15 | 18.1 |  |  |  |  |  |  | COC(=O)CCNC(=O)[C@@H]1O[P@](=O)(OCc2ccccc2)OCC1(C)C [compound 54, methyl 3-((2R,4R)-2-(benzyloxy)-5,5-dimethyl-2-oxido-1,3,2-dioxaphosphinane-4-carboxamido)propanoate] |  | 
2 |  |  | 1.84 |  |  |  |  |  |  | CC(C)OC(=O)OCO[P@@]1(=O)OCC(C)(C)[C@H](C(=O)NCCC(=O)O)O1 [2-130, 3-((2S,4R)-2-(((isopropoxycarbonyl)oxy)methoxy)-5,5-dimethyl-2-oxido-1,3,2-dioxaphosphinane-4-carboxamido)propanoic acid] | 43.5 | 
3 |  |  | 2.74 |  |  |  |  |  |  | COC(=O)CCNC(=O)[C@@H]1O[P@@](=O)(OCN2C(=O)c3ccccc3S2(=O)=O)OCC1(C)C (single isomer, unassigned) [Compound No. 2-126] | 138.56 | 
4 |  | > 240 | 15.6 |  |  |  |  |  |  | COC(=O)CCNC(=O)[C@@H]1O[P@@](=O)(OCC(F)(F)F)OCC1(C)C [2-138, methyl 3-((2R,4R)-5,5-dimethyl-2-oxido-2-(2,2,2-trifluoroethoxy)-1,3,2-dioxaphosphinane-4-carboxamido)propanoate] | 1.13 | 
5 | 70.8 | > 240 |  | < 9.6 | <9.6 | < 9.6 | 57.6 | 33 | > 240 | COC(=O)CCNC(=O)[C@@H]1OP(=O)(N[C@@H](C)C(=O)OC[C@H]2CCC(=O)N2)OCC1(C)C (stereo partly drawn) [compound 23, methyl 3-((4R)-5,5-dimethyl-2-oxido-2-(((S)-1-oxo-1-(((R)-5-oxopyrrolidin-2-yl)methoxy)propan-2-yl)amino)-1,3,2-dioxaphosphinane-4-carboxamido)propanoate] | 2.08 | 
6 | < 15 | 18.6 |  | < 9.6 | <9.6 | > 60 | > 60 | < 15 | < 15 | COC(=O)CCNC(=O)[C@@H]1OP(=O)(N[C@H](C)C(=O)OCCc2ccccc2)OCC1(C)C (stereo partly drawn) [compound 26, methyl 3-((4R)-5,5-dimethyl-2-oxido-2-(((R)-1-oxo-1-phenethoxypropan-2-yl)amino)-1,3,2-dioxaphosphinane-4-carboxamido)propanoate] | 2.29 | 
7 | 28.2 | 31.8 |  | < 9.6 | <9.6 | > 60 | > 60 | 24 | < 15 | COC(=O)CCNC(=O)[C@@H]1OP(=O)(N[C@H](C(=O)OCc2ccccc2)C(C)C)OCC1(C)C (stereo partly drawn) [compound 13, benzyl ((4R)-4-((3-methoxy-3-oxopropyl)carbamoyl)-5,5-dimethyl-2-oxido-1,3,2-dioxaphosphinan-2-yl)-L-valinate] | 1 | 
8 |  |  |  |  |  |  |  |  |  | COC(=O)CCNC(=O)[C@@H]1OP(=O)(N[C@@H](Cc2ccccc2)C(=O)OC(C)(C)C)OCC1(C)C (some centres unmarked) [compound 4] | 1.2 | half-life at 3 µM [5, 11]: < 9.6 min; half-life at 3 µM [6, 12]: > 60 min; half-life at 5 µM [1, 13]: 34.8 min; half-life [2, 14]: 26.4 min
9 | < 15 | < 15 |  | < 9.6 |  | 45.6 |  |  |  | COC(=O)CCNC(=O)[C@@H]1O[P@@](=O)(OCOC(=O)C(C)(C)C)OCC1(C)C (single isomer, unassigned) [Compound No. 90] | 286.0 | 
10 |  |  |  |  |  |  |  |  |  | COC(=O)CCNC(=O)[C@@H]1OP(=O)(N[C@H](C(=O)OC)C(C)C)OCC1(C)C (stereo partly drawn) [compound 1, (2S)-methyl 2-(((4R)-4-((3-methoxy-3-oxopropyl)carbamoyl)-5,5-dimethyl-2-oxido-1,3,2-dioxaphosphinan-2-yl)amino)-3-methylbutanoate] | 1.51 | half-life at 3 µM [5, 11]: < 9.6 min; t1/2, Mouse Plasma, Diastereoisomer B ([5]; Diastereoisomer B, 3 μM, 37° C., mouse plasma): <9.6 min; half-life at 3 µM [6, 12]: > 60 min; t1/2, Human Plasma, Diastereoisomer B ([6]; Diastereoisomer B, 3 μM): >60 min; half-life at 5 µM [1, 13]: 25.8 min; half-life at 5 µM ([1]; Diastereoisomer B, 5 μM, 1 million cells/ml, 37° C., mouse hepatocytes, read-out: t1/2, Mouse Hepatocytes, Diastereoisomer B (converted)): < 15 min; half-life [2, 14]: 77.4 min; half-life ([2]; Diastereoisomer B, read-out: t1/2, Human Hepatocytes, Diastereoisomer B (converted)): 78.6 min
11 | < 15 | 18.6 |  | < 9.6 | <9.6 | > 60 | > 60 | < 15 | < 15 | COC(=O)CCNC(=O)[C@@H]1OP(=O)(N[C@@H](Cc2ccc(OC(C)(C)C)cc2)C(=O)OC(C)(C)C)OCC1(C)C (some centres unmarked) [compound 15] | 0.5 | 
